Substitutions are numbered along the chain they refer to.

The test system of series [1] is T1, Receptor-type tyrosine-protein kinase FLT3 (Homo sapiens), P36888 [D835H].
T1 sequence (whole entry): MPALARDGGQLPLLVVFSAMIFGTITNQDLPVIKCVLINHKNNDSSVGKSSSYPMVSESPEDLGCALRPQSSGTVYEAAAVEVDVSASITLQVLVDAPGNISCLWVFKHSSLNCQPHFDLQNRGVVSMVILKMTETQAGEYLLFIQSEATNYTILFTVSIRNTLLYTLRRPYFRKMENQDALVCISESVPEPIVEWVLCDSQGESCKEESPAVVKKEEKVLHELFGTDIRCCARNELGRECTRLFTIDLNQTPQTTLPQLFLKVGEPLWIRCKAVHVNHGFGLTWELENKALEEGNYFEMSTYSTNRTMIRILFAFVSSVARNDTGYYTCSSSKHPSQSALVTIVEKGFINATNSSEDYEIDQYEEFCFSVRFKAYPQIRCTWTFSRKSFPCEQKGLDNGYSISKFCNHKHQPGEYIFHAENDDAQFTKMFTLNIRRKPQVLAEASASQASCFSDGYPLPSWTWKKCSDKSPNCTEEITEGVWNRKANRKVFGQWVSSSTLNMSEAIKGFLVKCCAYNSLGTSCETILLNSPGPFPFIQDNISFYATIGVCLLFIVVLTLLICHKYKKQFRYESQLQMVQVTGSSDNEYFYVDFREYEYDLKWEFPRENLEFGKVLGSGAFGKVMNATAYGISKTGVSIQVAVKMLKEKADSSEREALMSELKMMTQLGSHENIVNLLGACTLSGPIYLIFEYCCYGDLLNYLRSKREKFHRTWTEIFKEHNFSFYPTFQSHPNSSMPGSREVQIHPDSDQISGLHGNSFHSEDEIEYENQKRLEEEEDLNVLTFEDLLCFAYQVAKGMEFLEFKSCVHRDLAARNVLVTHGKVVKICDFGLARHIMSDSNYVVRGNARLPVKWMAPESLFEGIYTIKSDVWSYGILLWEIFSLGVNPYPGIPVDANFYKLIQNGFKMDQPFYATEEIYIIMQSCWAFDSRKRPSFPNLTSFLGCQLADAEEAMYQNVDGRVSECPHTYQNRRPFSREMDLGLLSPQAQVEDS
The series is described as follows: (§1) Selectivity interaction (KinomeScan (DiscoverX)) EUB0001619a FLT3. Conditions: at 1 µM.

For series [2], the system named is T2, Receptor-type tyrosine-protein kinase FLT3 (Homo sapiens), P36888 [D835Y].
T2 sequence (whole entry): T1 sequence (whole entry) with H835Y
Described as §1. Conditions: at 1 µM.

Series [3] concerns Receptor-type tyrosine-protein kinase FLT3 (Homo sapiens), P36888 [UNDEFINED MUTATION]. Described as §1. The conditions noted are these: at 1 µM.
For series [4], the system named is Fibroblast growth factor receptor 3 (Homo sapiens), P22607 [G697C]. Put plainly: (§2) Selectivity interaction (KinomeScan (DiscoverX)) EUB0000699a FGFR3. The conditions noted are these: at 10 µM.
Series [5] has as its target Fibroblast growth factor receptor 3 (Homo sapiens, UniProt P22607). The series is described as §2. Conditions: at 10 µM.
Series [6] deals with cAMP-dependent protein kinase catalytic subunit alpha (Homo sapiens, UniProt P17612). Conditions: at 10 µM.
Series [7] deals with Serine/threonine-protein kinase VRK2 (Homo sapiens) (UniProt Q86Y07). The series is described as follows: Selectivity interaction (KinomeScan (DiscoverX)) EUB0000045b VRK2.
The test system of series [8] is Receptor-type tyrosine-protein kinase FLT3 (Homo sapiens), P36888 [UNDEFINED MUTATION]. The series is described as follows: Selectivity interaction (KinomeScan (DiscoverX)) EUB0000311b FLT3. Conditions: at 1 µM.
Series [9] deals with Serine/threonine-protein kinase 26 (Homo sapiens, UniProt Q9P289). Put plainly: Selectivity interaction (Kinase panel (literature)) EUB0001199aCl STK26. The conditions noted are these: at 1 µM.
For series [10], the target named is T3, Casein kinase I isoform alpha-like (Homo sapiens) (UniProt Q8N752).
T3 sequence (whole entry): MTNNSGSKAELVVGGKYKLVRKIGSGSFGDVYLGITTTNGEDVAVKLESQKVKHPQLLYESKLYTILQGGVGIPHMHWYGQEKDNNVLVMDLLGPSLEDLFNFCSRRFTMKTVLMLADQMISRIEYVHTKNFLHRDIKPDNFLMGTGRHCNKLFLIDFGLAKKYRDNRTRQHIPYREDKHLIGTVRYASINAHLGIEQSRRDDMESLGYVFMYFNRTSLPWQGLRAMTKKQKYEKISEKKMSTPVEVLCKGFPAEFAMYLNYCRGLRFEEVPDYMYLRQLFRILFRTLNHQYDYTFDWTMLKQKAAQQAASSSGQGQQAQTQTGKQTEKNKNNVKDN
Put plainly: Selectivity interaction (KinomeScan (DiscoverX)) EUB0000092b CSNK1A1L. Conditions: at 10 µM.

The target of a further series is MAO-B (MAOB) (Homo sapiens, UniProt P27338). Put plainly: Selectivity interaction (Panel of kinases, GPCRs, ion channels and transporters (enzymatic assay)) EUB0000266bCl MAOB.
Series [11] concerns the target Mitogen-activated protein kinase kinase kinase 10 (Homo sapiens) (UniProt Q02779). Put plainly: Selectivity interaction (KinomeScan (DiscoverX)) EUB0000229b MAP3K10. Conditions: at 10 µM.

Serine/threonine-protein kinase VRK2 (Homo sapiens), sequence (Q86Y07 whole entry): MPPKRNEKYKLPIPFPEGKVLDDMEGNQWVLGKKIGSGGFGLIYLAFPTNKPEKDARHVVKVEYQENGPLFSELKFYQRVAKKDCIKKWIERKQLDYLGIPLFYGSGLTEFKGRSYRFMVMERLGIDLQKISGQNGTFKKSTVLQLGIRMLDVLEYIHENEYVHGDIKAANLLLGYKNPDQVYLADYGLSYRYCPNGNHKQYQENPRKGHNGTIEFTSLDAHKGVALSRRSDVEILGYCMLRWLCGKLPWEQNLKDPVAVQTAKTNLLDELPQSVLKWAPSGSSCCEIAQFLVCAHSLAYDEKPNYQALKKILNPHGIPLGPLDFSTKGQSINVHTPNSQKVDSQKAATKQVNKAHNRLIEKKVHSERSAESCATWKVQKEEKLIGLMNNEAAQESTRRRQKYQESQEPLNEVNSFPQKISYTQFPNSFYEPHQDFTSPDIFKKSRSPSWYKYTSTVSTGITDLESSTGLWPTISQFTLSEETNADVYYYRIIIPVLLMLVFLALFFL
MAO-B (MAOB), sequence (P27338 whole entry): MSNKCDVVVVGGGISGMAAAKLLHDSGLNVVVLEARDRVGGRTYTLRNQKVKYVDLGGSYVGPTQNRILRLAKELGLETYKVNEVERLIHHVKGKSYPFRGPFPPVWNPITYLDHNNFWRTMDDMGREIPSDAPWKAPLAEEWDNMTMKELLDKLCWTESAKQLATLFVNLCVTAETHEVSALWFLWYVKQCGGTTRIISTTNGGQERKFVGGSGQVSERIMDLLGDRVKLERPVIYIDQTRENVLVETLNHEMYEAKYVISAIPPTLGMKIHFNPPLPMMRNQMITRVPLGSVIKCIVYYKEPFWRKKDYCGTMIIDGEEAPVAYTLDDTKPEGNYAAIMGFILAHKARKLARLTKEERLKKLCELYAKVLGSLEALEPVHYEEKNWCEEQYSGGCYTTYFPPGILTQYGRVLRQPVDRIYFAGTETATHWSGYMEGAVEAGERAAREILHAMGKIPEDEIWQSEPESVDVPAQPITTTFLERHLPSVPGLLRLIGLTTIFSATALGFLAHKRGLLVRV
Fibroblast growth factor receptor 3 (Homo sapiens), P22607 [G697C], sequence (P22607 whole entry G697C): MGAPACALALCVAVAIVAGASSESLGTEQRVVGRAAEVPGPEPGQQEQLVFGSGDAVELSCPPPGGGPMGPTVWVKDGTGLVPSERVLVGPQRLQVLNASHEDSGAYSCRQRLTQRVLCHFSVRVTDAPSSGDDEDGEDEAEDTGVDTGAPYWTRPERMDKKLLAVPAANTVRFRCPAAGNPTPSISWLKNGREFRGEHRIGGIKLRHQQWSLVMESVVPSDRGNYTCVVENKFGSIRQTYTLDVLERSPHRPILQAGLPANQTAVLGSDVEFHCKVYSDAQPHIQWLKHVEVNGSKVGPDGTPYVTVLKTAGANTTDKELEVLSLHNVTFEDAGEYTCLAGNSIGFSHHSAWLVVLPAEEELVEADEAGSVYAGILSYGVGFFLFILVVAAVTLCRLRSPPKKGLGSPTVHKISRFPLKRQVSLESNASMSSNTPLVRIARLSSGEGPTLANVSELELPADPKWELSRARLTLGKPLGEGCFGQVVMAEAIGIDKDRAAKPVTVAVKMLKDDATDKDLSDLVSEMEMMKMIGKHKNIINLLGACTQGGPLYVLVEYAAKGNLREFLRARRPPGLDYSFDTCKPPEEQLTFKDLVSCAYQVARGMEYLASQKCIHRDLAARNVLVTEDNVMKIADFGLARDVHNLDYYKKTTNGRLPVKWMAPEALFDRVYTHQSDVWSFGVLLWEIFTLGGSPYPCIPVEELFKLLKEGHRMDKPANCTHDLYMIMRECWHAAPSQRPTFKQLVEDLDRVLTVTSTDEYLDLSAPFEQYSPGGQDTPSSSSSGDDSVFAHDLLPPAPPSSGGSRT
Serine/threonine-protein kinase 26, sequence (Q9P289 2-416 limits assumed): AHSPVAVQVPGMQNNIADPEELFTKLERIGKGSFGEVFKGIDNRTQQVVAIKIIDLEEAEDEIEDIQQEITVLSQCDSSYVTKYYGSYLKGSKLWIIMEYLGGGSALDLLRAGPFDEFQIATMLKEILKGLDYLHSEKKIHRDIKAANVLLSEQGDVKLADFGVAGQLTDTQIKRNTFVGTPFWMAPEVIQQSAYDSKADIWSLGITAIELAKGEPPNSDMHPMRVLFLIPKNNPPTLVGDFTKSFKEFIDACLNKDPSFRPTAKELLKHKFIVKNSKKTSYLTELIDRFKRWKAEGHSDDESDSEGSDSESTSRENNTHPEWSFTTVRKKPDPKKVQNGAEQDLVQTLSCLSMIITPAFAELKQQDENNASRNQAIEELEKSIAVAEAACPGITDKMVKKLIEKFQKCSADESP
Fibroblast growth factor receptor 3, sequence (P22607 23-806 limits assumed): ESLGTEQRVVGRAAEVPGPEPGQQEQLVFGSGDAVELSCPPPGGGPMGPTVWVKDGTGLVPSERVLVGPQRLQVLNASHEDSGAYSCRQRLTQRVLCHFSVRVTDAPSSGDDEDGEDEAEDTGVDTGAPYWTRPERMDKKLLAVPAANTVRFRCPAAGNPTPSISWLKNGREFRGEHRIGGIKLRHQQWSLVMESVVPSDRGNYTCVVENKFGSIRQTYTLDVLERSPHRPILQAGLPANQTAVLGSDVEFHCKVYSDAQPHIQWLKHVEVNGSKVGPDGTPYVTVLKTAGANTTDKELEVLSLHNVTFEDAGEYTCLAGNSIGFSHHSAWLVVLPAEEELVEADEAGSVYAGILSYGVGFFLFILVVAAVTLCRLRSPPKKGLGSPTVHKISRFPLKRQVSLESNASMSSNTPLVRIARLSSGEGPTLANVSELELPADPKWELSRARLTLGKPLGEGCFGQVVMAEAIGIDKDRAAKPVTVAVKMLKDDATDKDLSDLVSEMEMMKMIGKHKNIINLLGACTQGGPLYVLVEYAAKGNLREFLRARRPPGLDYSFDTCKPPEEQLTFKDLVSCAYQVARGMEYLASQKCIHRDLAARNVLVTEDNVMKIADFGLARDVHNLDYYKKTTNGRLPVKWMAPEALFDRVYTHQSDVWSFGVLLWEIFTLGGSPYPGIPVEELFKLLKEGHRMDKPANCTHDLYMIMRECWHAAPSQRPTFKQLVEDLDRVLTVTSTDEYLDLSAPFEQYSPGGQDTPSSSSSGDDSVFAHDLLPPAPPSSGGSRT
Mitogen-activated protein kinase kinase kinase 10 (Homo sapiens), sequence (Q02779 whole entry, looked up): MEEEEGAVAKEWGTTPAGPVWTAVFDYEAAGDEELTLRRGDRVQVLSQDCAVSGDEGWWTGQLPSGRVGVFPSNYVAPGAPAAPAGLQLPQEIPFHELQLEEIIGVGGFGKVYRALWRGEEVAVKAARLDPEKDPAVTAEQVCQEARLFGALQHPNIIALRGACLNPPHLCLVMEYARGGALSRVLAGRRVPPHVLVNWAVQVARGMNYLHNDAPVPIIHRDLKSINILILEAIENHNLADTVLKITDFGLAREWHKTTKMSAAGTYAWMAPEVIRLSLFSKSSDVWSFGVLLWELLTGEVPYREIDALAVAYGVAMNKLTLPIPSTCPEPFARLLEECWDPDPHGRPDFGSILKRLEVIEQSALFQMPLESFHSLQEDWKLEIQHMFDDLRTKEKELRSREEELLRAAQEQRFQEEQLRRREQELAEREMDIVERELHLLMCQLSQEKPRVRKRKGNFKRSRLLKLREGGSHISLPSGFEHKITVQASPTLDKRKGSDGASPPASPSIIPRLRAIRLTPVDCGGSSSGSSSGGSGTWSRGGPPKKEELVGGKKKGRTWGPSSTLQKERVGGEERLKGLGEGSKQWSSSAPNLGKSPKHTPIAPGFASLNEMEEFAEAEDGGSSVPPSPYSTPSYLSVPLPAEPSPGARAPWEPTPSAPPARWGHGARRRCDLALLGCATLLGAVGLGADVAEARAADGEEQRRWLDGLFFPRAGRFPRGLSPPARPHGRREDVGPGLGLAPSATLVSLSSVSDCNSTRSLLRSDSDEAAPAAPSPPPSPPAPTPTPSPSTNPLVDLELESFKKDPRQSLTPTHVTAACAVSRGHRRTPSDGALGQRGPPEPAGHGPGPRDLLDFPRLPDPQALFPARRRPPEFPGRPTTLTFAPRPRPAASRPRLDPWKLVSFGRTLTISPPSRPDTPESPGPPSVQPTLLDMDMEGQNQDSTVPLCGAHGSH

Consider `N#Cc1cccc(-c2c[nH]c3ncnc(N4CCOCC4)c23)c1`, for which the values for the % of control in series [1], in series [2] and in series [3] were 72%, 65% and 100%, respectively.

For `CCN(CC)CCCCNc1ncc2cc(-c3cc(OC)cc(OC)c3)c(NC(=O)NC(C)(C)C)nc2n1`, the % of control in series [4] was determined as 3.7%; in series [5], 0.1%; in [6], 100%.

For `C=CC(=O)Nc1cc(-n2c(=O)ccc3cnc4ccc(-c5ccc(NS(C)(=O)=O)cc5)cc4c32)ccc1C`, the values for the % of control in series [7] (at 1 µM) and in series [7] (at 10 µM) were 100% and 86%, respectively.

In turn, `CCc1ccccc1C(=O)Nc1n[nH]c2c(C)c(F)c(C3C(C#N)=C(C)N(C)C(C)=C3C#N)cc12` [BAY-3827] registered a % of control in series [8] of 11%.

As to `CN1Cc2nccc(-c3cn(C)nc3-c3ccc(F)cc3)c2C1=O`, the % of inhibition in series [9] is 8%.

With `CCC(=O)N1CCN(c2ccc(-n3c(=O)ccc4cnc5ccc(-c6cnc7ccccc7c6)cc5c43)cc2C(F)(F)F)CC1`, the % of control in [10] worked out at 81%.

As for `CCn1c(-c2nc3cc(C(=O)N4CCCC(N)C4)ccc3n2C)cc2ccccc21` (stereo not drawn), the XC50 at MAO-B (MAOB) is 20 µM.

The molecule `COc1cc(N(C)c2ccnc3ccc(C(F)(F)F)cc23)cc(OC)c1OC` gave a % binding in [11] of 100%.

Values taken from ChEMBL document CHEMBL5465560, “Selectivity Literature for EUbOPEN Chemogenomic Library” (2024).
